Structures can show the parent of a compound that is named as a salt. Where two headings read alike, the source gives them in different places.
Columns and labels:
Design in all cases: species or system AML cell lines (8); Primary HTS, single concentration about 10 uM, Cell Titer Glo viability; log10 luminescence, per cent inhibition relative to cycloheximide control
Conditions in all cases: 72 h, inhibitor
CHRF288-11 = tested on: CHRF288-11
M07e = tested on: M07e
MV4-11 = tested on: MV4-11
U937 = tested on: U937
ML-2 = tested on: ML-2
CMK = tested on: CMK
MOLM-13 = tested on: MOLM-13
CMS = tested on: CMS
[1] = relative to cycloheximide control, log10 luminescence
[2] = relative to cycloheximide control, log10 luminescence, CHRF288-11 %inh, 10 µM
[3] = relative to cycloheximide control, log10 luminescence, M07e %inh, 10 µM
[4] = relative to cycloheximide control, log10 luminescence, MV4-11 %inh, 10 µM
[5] = relative to cycloheximide control, log10 luminescence, U937 %inh, 10 µM
[6] = relative to cycloheximide control, log10 luminescence, ML-2 %inh, 10 µM
[7] = relative to cycloheximide control, log10 luminescence, CMK %inh, 10 µM
[8] = relative to cycloheximide control, log10 luminescence, MOLM-13 %inh, 10 µM
[9] = relative to cycloheximide control, log10 luminescence, CMS %inh, 10 µM

SMILES	CHRF288-11 %inh (CHRF288-11; [1]) [%]	M07e %inh (M07e; [1]) [%]	MV4-11 %inh (MV4-11; [1]) [%]	U937 %inh (U937; [1]) [%]	ML-2 %inh (ML-2; [1]) [%]	CMK %inh (CMK; [1]) [%]	MOLM-13 %inh (MOLM-13; [1]) [%]	CMS %inh (CMS; [1]) [%]	CHRF288-11 %inh (CHRF288-11; [2]) [%]	M07e %inh (M07e; [3]) [%]	MV4-11 %inh (MV4-11; [4]) [%]	U937 %inh (U937; [5]) [%]	ML-2 %inh (ML-2; [6]) [%]	CMK %inh (CMK; [7]) [%]	MOLM-13 %inh (MOLM-13; [8]) [%]	CMS %inh (CMS; [9]) [%]	other results
CCOC(=O)OC(C)OC(=O)[C@@H]1N2C(=O)[C@@H](NC(=O)[C@H](N)c3ccccc3)[C@H]2SC1(C)C (stereo partly shown) [SJ000285946-4, BACAMPICILLIN HYDROCHLORIDE]	-3.08	-1.353	-1.634	-1.553	-0.2443	-5.01	6.375	-1.038	–	–	–	–	–	–	–	–	–
CN(C)CCC=C1c2ccccc2C=Cc2ccccc21 [SJ000285960-7, CYCLOBENZAPRINE HYDROCHLORIDE]	66.65	2.233	2.11	7.437	3.717	3.38	-2.604	-1.125	–	–	–	–	–	–	–	–	–
CCn1cc(C(=O)O)c(=O)c2cc(F)c(N3CCNCC3)nc21 [SJ000285962-4, ENOXACIN]	7.607	7.045	40.28	-0.8348	32.21	15.64	-2.8	4.313	–	–	–	–	–	–	–	–	–
CC(=O)/N=c1/sc(S(N)(=O)=O)nn1C [SJ000285971-4, METHAZOLAMIDE]	–	–	–	–	–	–	–	–	-2.381	-2.489	-0.9248	-0.6609	1.069	-8.28	1.468	-3.008	–
CC(=O)/N=c1/sc(S(N)(=O)=O)nn1C [SJ000285971-5, METHAZOLAMIDE]	–	–	–	–	–	–	–	–	-3.176	-1.211	-3.681	-1.329	3.001	-2.598	0.5424	-3.489	–
COc1ccc(OC)c(C(O)CNC(=O)CN)c1 (stereo not shown) [SJ000285975-4, MIDODRINE HYDROCHLORIDE]	5.586	0.8303	0.5881	-2.394	3.423	-2.727	-0.9656	-2.587	–	–	–	–	–	–	–	–	–
CC(=O)CCCCn1c(=O)c2c(ncn2C)n(C)c1=O [SJ000285992-7, PENTOXIFYLLINE]	-2.356	-1.002	4.085	-1.659	-1.777	2.352	0.7772	-0.2539	–	–	–	–	–	–	–	–	–
CCC(=O)O[C@]1(C(=O)CCl)[C@@H](C)C[C@H]2[C@@H]3CCC4=CC(=O)C=C[C@]4(C)[C@@]3(F)[C@@H](O)C[C@@]21C [SJ000286006-4, CLOBETASOL PROPIONATE]	12.55	3.893	4.125	16.72	4.272	12.78	8.361	4.642	–	–	–	–	–	–	–	–	–
OCCN1CCN(CCCN2c3ccccc3Sc3ccc(Cl)cc32)CC1 [SJ000286016-7, PERPHENAZINE]	–	–	–	–	–	–	–	–	-1.811	0.915	1.352	-2.208	-0.4093	1.286	-1.496	1.171	–
OCCN1CCN(CCCN2c3ccccc3Sc3ccc(Cl)cc32)CC1 [SJ000286016-8, PERPHENAZINE]	–	–	–	–	–	–	–	–	40.76	5.089	2.594	5.279	2.921	10.21	2.324	3.223	–
OC(Cn1cncn1)(Cn1cncn1)c1ccc(F)cc1F [SJ000286024-3, FLUCONAZOLE]	-3.189	-2.445	0.2312	1.624	-1.511	-0.02108	-1.868	-4.097	–	–	–	–	–	–	–	–	–
CC[C@H]1OC(=O)[C@H](C)[C@@H](O[C@H]2C[C@@](C)(OC)[C@@H](O)[C@H](C)O2)[C@H](C)[C@@H](O[C@@H]2O[C@H](C)C[C@H](N(C)C)[C@H]2O)[C@](C)(O)C[C@@H](C)[C@@H]2N[C@@H](COCCOC)O[C@H]([C@H]2C)[C@]1(C)O [SJ000286040-4, DIRITHROMYCIN]	–	–	–	–	–	–	–	–	–	–	–	–	–	–	–	–	CHRF288-11 %inh (CHRF288-11; 10 µM): 3.605%; M07e %inh (M07e; 10 µM): -2.158%; MV4-11 %inh (MV4-11; 10 µM): -1.547%; U937 %inh (U937; 10 µM): 3.436%; ML-2 %inh (ML-2; 10 µM): 0.363%; CMK %inh (CMK; 10 µM): -6.058%; MOLM-13 %inh (MOLM-13; 10 µM): 5.018%; CMS %inh (CMS; 10 µM): -2.389%
CC[C@H]1OC(=O)[C@H](C)[C@@H](O[C@H]2C[C@@](C)(OC)[C@@H](O)[C@H](C)O2)[C@H](C)[C@@H](O[C@@H]2O[C@H](C)C[C@H](N(C)C)[C@H]2O)[C@](C)(O)C[C@@H](C)[C@@H]2N[C@@H](COCCOC)O[C@H]([C@H]2C)[C@]1(C)O [SJ000286040-5, DIRITHROMYCIN]	–	–	–	–	–	–	–	–	–	–	–	–	–	–	–	–	CHRF288-11 %inh (CHRF288-11; 10 µM): 3.137%; M07e %inh (M07e; 10 µM): -2.366%; MV4-11 %inh (MV4-11; 10 µM): -3.548%; U937 %inh (U937; 10 µM): -1.919%; ML-2 %inh (ML-2; 10 µM): -0.7146%; CMK %inh (CMK; 10 µM): -5.982%; MOLM-13 %inh (MOLM-13; 10 µM): -2.496%; CMS %inh (CMS; 10 µM): -0.1114%
CC[C@H]1OC(=O)[C@H](C)[C@@H](O[C@H]2C[C@@](C)(OC)[C@@H](O)[C@H](C)O2)[C@H](C)[C@@H](O[C@@H]2O[C@H](C)C[C@H](N(C)C)[C@H]2O)[C@](C)(OC)C[C@@H](C)C(=O)[C@H](C)[C@@H](O)[C@]1(C)O [SJ000286061-3, CLARITHROMYCIN]	–	–	–	–	–	–	–	–	-0.08051	0.43	1.904	1.585	2.326	1.841	2.582	-1.005	–
CC[C@H]1OC(=O)[C@H](C)[C@@H](O[C@H]2C[C@@](C)(OC)[C@@H](O)[C@H](C)O2)[C@H](C)[C@@H](O[C@@H]2O[C@H](C)C[C@H](N(C)C)[C@H]2O)[C@](C)(OC)C[C@@H](C)C(=O)[C@H](C)[C@@H](O)[C@]1(C)O [SJ000286061-4, CLARITHROMYCIN]	–	–	–	–	–	–	–	–	4.27	4.017	1.784	1.816	-1.428	-0.3654	0.6227	4.035	–
COc1c(N2CCNC(C)C2)c(F)cc2c(=O)c(C(=O)O)cn(C3CC3)c12 (stereo not shown) [SJ000286066-3, GATIFLOXACIN]	7.116	0.9683	-0.7209	2.127	1.743	1.598	8.563	-1.278	–	–	–	–	–	–	–	–	–
CC(=O)OCC(CCn1cnc2cnc(N)nc21)COC(C)=O [SJ000286077-3, FAMCICLOVIR]	-0.6265	-1.801	1.495	2.68	-0.1732	3.857	3.343	3.04	–	–	–	–	–	–	–	–	–

Source: publication PMC6522510 (Nature Communications, 2019)
